This note sets out measurements from ChEMBL document CHEMBL4765420, “Design, synthesis and biological evaluation of novel HDAC inhibitors with improved pharmacokinetic profile in breast cancer” (Eur J Med Chem, 2020).

Activity calls are given as the source filed them. The rule behind the calls is not given here.

Assay [1] has as its system MDA-MB-231. As to the kind of experiment: Induction of autophagy in human MDA-MB-231 cells assessed as increase in Beclin1 expression at 2.5 to 10 uM measured after 24 hrs by Western blot analysis. It is filed as functional, cell-based. Particulars: dose 2.5-10 µM. (In general: Immunoblotting shows a protein as a band on a membrane.)
In assay [2] the test system is MDA-MB-231. The assay is described as follows: Antiproliferative activity against human MDA-MB-231 cells measured after 72 hrs by MTT assay. It is filed as functional, cell-based. Particulars: MDA-MB-231, 72 h.
For assay [3], the system named is MDA-MB-231. As to the kind of experiment: Induction of apoptosis in human MDA-MB-231 cells assessed as increase in cleaved caspase-9 expression at 2.5 to 10 uM measured after 24 hrs by Western blot analysis. Particulars: dose 2.5-10 µM. Type of assay: functional, cell-based.
Assay [4] deals with MDA-MB-231. The assay is described as follows: Antiproliferative activity against human MDA-MB-231 cells measured after 24 hrs by MTT assay. Type of assay: functional, cell-based. Particulars: MDA-MB-231, 24 h.
The target of another assay is Histone deacetylase 2 (Homo sapiens, UniProt Q92769). The assay is described as follows: Inhibition of human full-length C-terminal FLAG-tagged HDAC2 expressed in baculovirus infected Sf9 insect cells using Ac-Leu-Gly-Lys(Ac)-AMC as substrate measured after 30 mins by fluorescence assay. It is filed as cell-based.
Histone deacetylase 2, sequence (Q92769 whole entry): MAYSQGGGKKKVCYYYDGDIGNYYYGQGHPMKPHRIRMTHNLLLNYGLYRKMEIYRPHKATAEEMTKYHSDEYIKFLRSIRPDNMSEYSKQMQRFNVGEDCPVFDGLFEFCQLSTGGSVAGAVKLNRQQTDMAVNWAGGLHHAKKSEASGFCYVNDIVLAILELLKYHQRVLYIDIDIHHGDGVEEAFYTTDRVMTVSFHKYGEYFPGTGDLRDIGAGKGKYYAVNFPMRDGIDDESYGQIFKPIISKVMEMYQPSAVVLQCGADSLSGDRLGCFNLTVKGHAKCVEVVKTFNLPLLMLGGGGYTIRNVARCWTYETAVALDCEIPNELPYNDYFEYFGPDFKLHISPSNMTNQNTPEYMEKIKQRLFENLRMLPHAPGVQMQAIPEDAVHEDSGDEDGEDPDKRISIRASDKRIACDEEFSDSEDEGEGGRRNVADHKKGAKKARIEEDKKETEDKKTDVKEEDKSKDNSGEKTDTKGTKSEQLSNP
Assay [5] deals with MDA-MB-231. As to the kind of experiment: Induction of apoptosis in human MDA-MB-231 cells assessed as viable cells at 5 uM measured after 24 hrs by Annexin-V/propidium iodide staining based flow cytometry (reference value: 95.68 to 98.38%). It is filed as functional. Particulars: read-out: Activity. (Flow cytometry measures light scatter and fluorescence of single cells or particles in a stream.)

In assay [6] the test system is MDA-MB-231. As to the kind of experiment: Inhibition of cell migration in human MDA-MB-231 cells at 2.5 to 10 uM measured after 24 hrs using crystal violet staining by phase-contrast microscopy based transwell assay. It is filed as functional. Conditions: dose 2.5-10 µM.
In assay [7] the test system is MDA-MB-231. As to the kind of experiment: Induction of autophagy in human MDA-MB-231 cells expressing GFP-mRFP-LC3 assessed as increase in LC3 punta aggregation at 2.5 to 10 uM measured after 24 hrs by immunofluorescence assay. Type of assay: functional, cell-based. Particulars: dose 2.5-10 µM.
In assay [8] the target is T1, Protein deacetylase HDAC6 (Homo sapiens) (UniProt Q9UBN7).
T1 sequence (whole entry): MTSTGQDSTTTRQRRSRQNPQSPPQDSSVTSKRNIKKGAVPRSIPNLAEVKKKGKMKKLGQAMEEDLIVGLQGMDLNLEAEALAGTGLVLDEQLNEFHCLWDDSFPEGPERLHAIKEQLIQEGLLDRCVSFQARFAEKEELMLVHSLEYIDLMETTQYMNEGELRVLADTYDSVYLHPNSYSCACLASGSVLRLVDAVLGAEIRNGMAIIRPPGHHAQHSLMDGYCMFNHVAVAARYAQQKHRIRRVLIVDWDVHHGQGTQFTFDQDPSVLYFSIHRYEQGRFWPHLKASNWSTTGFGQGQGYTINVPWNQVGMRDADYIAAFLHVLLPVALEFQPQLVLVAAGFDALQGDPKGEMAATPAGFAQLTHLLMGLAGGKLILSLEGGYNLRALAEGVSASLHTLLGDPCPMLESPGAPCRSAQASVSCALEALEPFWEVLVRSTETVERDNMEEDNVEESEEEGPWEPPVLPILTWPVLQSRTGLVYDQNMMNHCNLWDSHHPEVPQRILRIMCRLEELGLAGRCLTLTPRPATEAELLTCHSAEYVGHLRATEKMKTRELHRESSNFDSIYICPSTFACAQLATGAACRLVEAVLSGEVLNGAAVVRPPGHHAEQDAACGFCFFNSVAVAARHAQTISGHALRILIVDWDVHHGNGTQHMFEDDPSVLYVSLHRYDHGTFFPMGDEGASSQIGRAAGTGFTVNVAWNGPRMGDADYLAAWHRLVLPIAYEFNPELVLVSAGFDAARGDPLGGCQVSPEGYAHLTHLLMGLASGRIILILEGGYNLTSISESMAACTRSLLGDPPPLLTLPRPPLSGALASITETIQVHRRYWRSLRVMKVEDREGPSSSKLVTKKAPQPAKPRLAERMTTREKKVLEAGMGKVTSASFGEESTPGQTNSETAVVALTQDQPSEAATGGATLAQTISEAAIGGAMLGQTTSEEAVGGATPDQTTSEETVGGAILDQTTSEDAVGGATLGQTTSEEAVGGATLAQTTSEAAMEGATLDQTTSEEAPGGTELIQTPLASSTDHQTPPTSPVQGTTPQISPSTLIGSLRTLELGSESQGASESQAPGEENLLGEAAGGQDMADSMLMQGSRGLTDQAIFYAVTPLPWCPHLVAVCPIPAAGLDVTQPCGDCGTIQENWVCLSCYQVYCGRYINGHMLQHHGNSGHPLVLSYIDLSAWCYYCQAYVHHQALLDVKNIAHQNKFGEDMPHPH
As to the kind of experiment: Inhibition of HDAC6 in human MDA-MB-231 cells assessed as increase in HSP90 acetylation at 2.5 to 10 uM measured after 24 hrs by Western blot analysis. Type of assay: cell-based. Particulars: dose 2.5-10 µM.

In assay [9] the test system is MDA-MB-231. The assay is described as follows: Inhibition of cell migration in human MDA-MB-231 cells assessed as decrease in MMP2 expression at 2.5 to 10 uM measured after 24 hrs Western blot analysis. Type of assay: functional, cell-based. Particulars: dose 2.5-10 µM.
Assay [10] relates to MDA-MB-231. As to the kind of experiment: Induction of apoptosis in human MDA-MB-231 cells assessed as necrotic cells at 5 uM measured after 24 hrs by Annexin-V/propidium iodide staining based flow cytometry (reference value: 0.22 to 0.46%). It is filed as functional.
Assay [11] deals with MDA-MB-231. As to the kind of experiment: Induction of endoplasmic reticulum stress in human MDA-MB-231 cells assessed as increase in PERK expression at 2.5 to 10 uM measured after 24 hrs by Western blot analysis. Type of assay: functional, cell-based. Conditions: dose 2.5-10 µM.
Assay [12] concerns MDA-MB-231. As to the kind of experiment: Inhibition of cell migration in human MDA-MB-231 cells assessed as increase in E-cadherin expression at 2.5 to 10 uM measured after 24 hrs Western blot analysis. It is filed as functional, cell-based. Particulars: dose 2.5-10 µM.
Assay [13] has as its system MDA-MB-231. The assay is described as follows: Induction of apoptosis in human MDA-MB-231 cells assessed as viable cells at 2.5 uM measured after 24 hrs by Annexin-V/propidium iodide staining based flow cytometry (reference value: 95.68 to 98.38%). It is filed as functional. Conditions: read-out: Activity.
A further assay deals with T2, Histone deacetylase 11 (Homo sapiens, UniProt Q96DB2).
T2 sequence (Q96DB2 whole entry): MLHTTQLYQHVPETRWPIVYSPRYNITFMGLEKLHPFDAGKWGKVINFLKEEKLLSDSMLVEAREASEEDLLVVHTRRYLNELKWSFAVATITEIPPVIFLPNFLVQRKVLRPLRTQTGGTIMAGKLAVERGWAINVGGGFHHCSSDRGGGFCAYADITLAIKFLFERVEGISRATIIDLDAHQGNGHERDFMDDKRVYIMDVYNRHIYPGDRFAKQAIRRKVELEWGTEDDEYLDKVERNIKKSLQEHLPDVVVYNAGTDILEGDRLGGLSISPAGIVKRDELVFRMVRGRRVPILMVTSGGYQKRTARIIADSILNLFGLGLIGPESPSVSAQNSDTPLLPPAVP
The assay is described as follows: Inhibition of recombinant human N-terminal His-tagged HDAC11 expressed in baculovirus infected Sf9 insect cells using Ac-Arg-His-Lys(Ac)-Lys(Ac)-AMC as substrate measured after 30 mins by fluorescence assay.

The next assay deals with Histone deacetylase 5 (Homo sapiens, UniProt Q9UQL6). The assay is described as follows: Inhibition of recombinant human full-length N-terminal GST-tagged HDAC5 expressed in baculovirus infected Sf9 insect cells using AcLeu-Gly-Lys(Tfa)-AMC as substrate measured after 30 mins by fluorescence assay.
Histone deacetylase 5, sequence (Q9UQL6 whole entry): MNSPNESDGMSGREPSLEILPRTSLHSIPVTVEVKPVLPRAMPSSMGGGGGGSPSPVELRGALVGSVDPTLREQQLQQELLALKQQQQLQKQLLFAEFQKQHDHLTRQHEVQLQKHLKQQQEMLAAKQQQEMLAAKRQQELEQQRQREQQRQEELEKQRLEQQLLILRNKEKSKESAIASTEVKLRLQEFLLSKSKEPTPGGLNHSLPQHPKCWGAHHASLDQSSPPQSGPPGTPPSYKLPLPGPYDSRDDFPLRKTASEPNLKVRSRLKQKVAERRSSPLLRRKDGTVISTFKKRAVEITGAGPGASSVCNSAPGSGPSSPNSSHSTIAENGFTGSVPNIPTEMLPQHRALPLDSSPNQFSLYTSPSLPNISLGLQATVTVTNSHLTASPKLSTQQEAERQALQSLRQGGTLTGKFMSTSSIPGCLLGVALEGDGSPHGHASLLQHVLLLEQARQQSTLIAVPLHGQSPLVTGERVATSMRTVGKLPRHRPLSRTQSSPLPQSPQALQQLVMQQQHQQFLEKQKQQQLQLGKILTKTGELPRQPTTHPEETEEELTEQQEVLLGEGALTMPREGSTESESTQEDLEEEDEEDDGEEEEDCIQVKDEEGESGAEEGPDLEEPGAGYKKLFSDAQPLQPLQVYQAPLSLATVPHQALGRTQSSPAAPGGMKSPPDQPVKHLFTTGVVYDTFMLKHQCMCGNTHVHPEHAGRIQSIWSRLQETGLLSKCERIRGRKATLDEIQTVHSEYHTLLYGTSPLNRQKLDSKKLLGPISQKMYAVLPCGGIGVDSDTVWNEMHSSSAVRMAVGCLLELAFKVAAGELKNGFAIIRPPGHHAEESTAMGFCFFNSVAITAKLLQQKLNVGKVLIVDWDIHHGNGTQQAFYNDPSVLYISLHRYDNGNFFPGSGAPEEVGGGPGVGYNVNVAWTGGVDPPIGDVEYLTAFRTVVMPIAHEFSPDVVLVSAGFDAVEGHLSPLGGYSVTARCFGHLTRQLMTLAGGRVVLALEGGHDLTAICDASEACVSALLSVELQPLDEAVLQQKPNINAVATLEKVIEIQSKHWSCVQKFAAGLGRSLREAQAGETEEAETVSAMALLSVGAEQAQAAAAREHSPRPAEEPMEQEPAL
The subject of assay [14] is MDA-MB-231. The assay is described as follows: Induction of apoptosis in human MDA-MB-231 cells assessed as late apoptotic cells at 2.5 uM measured after 24 hrs by Annexin-V/propidium iodide staining based flow cytometry (reference value: 0.71 to 2.94%). Type of assay: functional.

In general, IC50 refers to the midpoint of a concentration-inhibition curve. Turning to `COc1cc(OC)c2c(N3CCS(=O)(=O)CC3)nc(-c3cc(C)c(OCCCCCC(=O)NO)c(C)c3)nc2c1`, the result with MDA-MB-231 [1], in the assay on MDA-MB-231 [3], with MDA-MB-231 [7], in the assay on MDA-MB-231 [9], with MDA-MB-231 [11] and in the assay with MDA-MB-231 [12] was Active. For the same compound, the IC50 in the assay on MDA-MB-231 [2] is 0.898 µM; in the assay with MDA-MB-231 [4], 2.37 µM; at Histone deacetylase 2, 0.136 µM; on Histone deacetylase 11, > 1 µM; on Histone deacetylase 5 it was 0.688 µM. In addition, in the assay on MDA-MB-231 [5], the viability at 5 µM worked out at 71.5%. Besides, the inhibition result (in the assay on MDA-MB-231 [6]; in assay [8]) was “Active” in each case. The Activity in the assay with MDA-MB-231 [10] came to 0.41%; in the assay on MDA-MB-231 [14] it was 3.01%. Also, the viability at 2.5 µM in the assay with MDA-MB-231 [13] is 84.2%.
